The results in this text go back to PubChem BioAssay AID588387 (NMMLSC, 2011).

Active and inactive are the calls of the source.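 How the source made its calls: active means half-maximal binding-loss concentration at or below 10 µM, response change across doses of 30% or more, acceptable curve fit; inactive means the rest.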

One assay deals with GTPase HRas (Homo sapiens) (UniProt P01112). Nature of the assay: activated H-Ras mutant GTP-binding inhibitors, SAR follow-up, biochemical, multiplex bead flow cytometry, round 1 (AID 588387). As to conditions: GST-H-Ras beads, Bodipy-FL-GTP binding. In general terms: A flow cytometer gives signals particle by particle.
Chain of GTPase HRas (Homo sapiens) (P01112 whole entry, looked up): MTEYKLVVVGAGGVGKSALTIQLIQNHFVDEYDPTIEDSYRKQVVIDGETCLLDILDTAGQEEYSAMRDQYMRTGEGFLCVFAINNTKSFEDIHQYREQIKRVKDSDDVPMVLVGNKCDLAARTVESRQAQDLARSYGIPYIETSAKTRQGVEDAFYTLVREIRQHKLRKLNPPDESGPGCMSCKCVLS
In the case of `CC1(C)Cc2c(sc(NC(=S)NC(=O)c3cccc(F)c3)c2C(=O)O)CO1`, the EC50 – broadly, the concentration needed to bring the measured effect to its halfway point – was 278 nM. Consider `CC1(C)Cc2c(sc(NC(=S)NC(=O)c3ccccc3F)c2C(=O)O)CO1`, for which the EC50 is 51 nM. Take `CC1(C)Cc2c(sc(NC(=S)NC(=O)c3ccc(Br)cc3)c2C(=O)O)CO1`: the EC50 is 260 nM.

With `CC1(C)CCc2sc(NC(=S)NC(=O)c3ccccc3)c(C(=O)O)c2C1`, the EC50 was 76 nM. In the case of `CC1(C)Cc2c(sc(NC(=O)NC(=O)c3ccccc3)c2C(=O)O)CO1`, the EC50 was 151 nM.

With `COc1ccc(C(=O)NC(=S)Nc2sc3c(c2C(=O)O)CC(C)(C)OC3)cc1`, the EC50 was 145 nM. The same measure, in the same setting: to `CC1(C)Cc2c(sc(NC(=S)NC(=O)c3ccccc3Br)c2C(=O)O)CO1` belongs 45 nM. Consider `O=C(NC(=S)Nc1sc2c(c1C(=O)O)CCOC2)c1ccccc1`, for which the EC50 was 32 nM.

For the compound `CC1Cc2c(sc(NC(=S)NC(=O)c3ccccc3)c2C(=O)O)CO1` (configuration not stated), the EC50 is 47 nM.

In the case of `COc1cccc(C(=O)NC(=S)Nc2sc3c(c2C(=O)O)CC(C)(C)OC3)c1`, the concentration giving a half-maximal response (EC50) is 33 nM. `CC1(C)Cc2c(sc(NC(=S)NC(=O)c3ccccc3)c2C(=O)O)CO1`: the EC50 was 82 nM.

The same assay, now with this note: GST-H-Ras beads, Bodipy-FL-GTP binding, at 100 µM (top of the series).
As for `CC1(C)Cc2c(sc(NC(=O)Cc3ccccc3)c2C(=O)O)CO1`, the “% response (remaining GTP binding)” value was “inactive”.

As for `CCOC(=O)c1c(NC(=S)NC(=O)c2ccccc2)sc2ccccc12`, the “% response (remaining GTP binding)” value was “inactive”. The same measure, in the same setting: to `CCOC(=O)c1c(NC(=O)NC(C)(C)C)sc2c1CCN(C)C2` belongs “inactive”.

Consider `CCOC(=O)c1c(NC(=O)Nc2ccc(C)cc2)sc2c1CCN(C)C2`, for which the “% response (remaining GTP binding)” value is “inactive”. Take `Cc1ccc(Nc2nc3sc4c(c3c(=O)o2)CCN(C)C4)cc1`: the “% response (remaining GTP binding)” value was “inactive”. The same measure, in the same setting: to `Cc1ccc(NC(=O)Nc2sc3c(c2C(=O)O)CCN(C)C3)cc1` belongs “inactive”; to `COC(=O)c1c(N)sc2c1CC(C)(C)OC2`, “inactive”; to `CC(C)(C)OC(=O)c1c(NC(=S)NC(=O)c2ccccc2)sc2c1CCOC2`, “inactive”. Still for that read-out and setting: the same measure for `COC(=O)c1c(NC(=S)NC(=O)c2ccccc2)sc2c1CC(C)(C)OC2`: “inactive”; for `CCOC(=O)c1c(NC(=S)Nc2ccccc2)sc2c1CC(C)(C)OC2`: “inactive”; for `CC1(C)Cc2c(sc(NC(=S)NC(=O)c3cccc(Br)c3)c2C(=O)O)CO1`: “inactive”. Still for that read-out and setting: the same measure for `CN1CCc2c(sc(NC(=O)Nc3ccc(F)cc3)c2C(=O)O)C1`: “inactive”; for `CN1CCc2c(sc3nc(Nc4ccc(F)cc4)oc(=O)c23)C1`: “inactive”.

Regarding `CCOC(=O)c1c(NC(=O)Nc2ccc(F)cc2)sc2c1CCN(C)C2`, the “% response (remaining GTP binding)” value was “inactive”. On the same count and under the same terms, to `CCOC(=O)c1c(N)sc2ccccc12` belongs “inactive”. The same measure, in the same setting: to `CC1(C)Cc2c(sc(NC(=S)Nc3ccccc3)c2C(=O)O)CO1` belongs “inactive”.
